Test results: PubChem BioAssay (NCI)
Where “and” joins values, the source holds several entries; their conditions need not be identical. Equal entries are not always repeated.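 Five compound concentrations were applied to cells in 96-well plates for 48 hours; endpoints were derived by simple linear interpolation of the resulting dose-response curve. Here, GI50 denotes the concentration required for 50% inhibition of growth. TGI denotes the concentration required for complete inhibition of growth.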

Tests used:
Test in all cases: inhibition of tumour cell growth, NCI panel, 48 h
HOP-92 NSCLC = test system: HOP-92 NSCLC
MALME-3M melanoma = test system: MALME-3M melanoma
MCF7 breast = test system: MCF7 breast
MDA-MB-231 breast = test system: MDA-MB-231 breast
MOLT-4 leukemia = test system: MOLT-4 leukemia
NCI/ADR-RES ovarian = test system: NCI/ADR-RES ovarian
RPMI-8226 leukemia = test system: RPMI-8226 leukemia
SK-MEL-5 melanoma = test system: SK-MEL-5 melanoma
UACC-257 melanoma = test system: UACC-257 melanoma
UACC-62 melanoma = test system: UACC-62 melanoma

SMILES | GI50 (HOP-92 NSCLC) | TGI (HOP-92 NSCLC) | GI50 (MALME-3M melanoma) | TGI (MALME-3M melanoma) | GI50 (MCF7 breast) | TGI (MCF7 breast) | GI50 (MDA-MB-231 breast) | TGI (MDA-MB-231 breast) | GI50 (MOLT-4 leukemia) | TGI (MOLT-4 leukemia) | GI50 (NCI/ADR-RES ovarian) | TGI (NCI/ADR-RES ovarian) | GI50 (RPMI-8226 leukemia) | TGI (RPMI-8226 leukemia) | GI50 (SK-MEL-5 melanoma) | TGI (SK-MEL-5 melanoma) | GI50 (UACC-257 melanoma) | TGI (UACC-257 melanoma) | GI50 (UACC-62 melanoma) | TGI (UACC-62 melanoma)
NC(=O)CCC(NC(=O)OCc1ccccc1)C(=O)OCC(=O)c1ccccc1 (centres undefined) | > 100 µM | > 100 µM | > 100 µM | > 100 µM | > 100 µM | > 100 µM | > 100 µM | > 100 µM | > 100 µM | > 100 µM | > 100 µM | > 100 µM | > 100 µM | > 100 µM | > 100 µM | > 100 µM | > 100 µM | > 100 µM | > 100 µM | > 100 µM
Cc1ccc2c(c1)C(=O)c1c-2n(CCCN)c(=O)c2cc([N+](=O)[O-])ccc12 | 0.435 µM | 1.18 µM | 0.752 µM | 1.71 µM | 0.113 µM | 0.836 µM | 0.293 µM | 0.827 µM | 0.0244 µM | 0.129 µM | 0.594 µM | 1.45 µM | 0.0199 µM | 0.226 µM | 1.1 µM | 3.6 µM | 1.52 µM | 4.97 µM | 0.522 µM | 1.11 µM
CN(C)c1ccc(/C=C2\C[C@H]3[C@@H]4CC=C5C[C@@H](N6CCCC6)CC[C@]5(C)[C@H]4CC[C@]3(C)[C@H]2O)cc1 |  | 4.98 µM | 2.55 µM | 1.69 µM and 8.35 µM |  | 12.5 µM | 2.23 µM | 2.16 µM and 4.46 µM | 4.98 µM |  | 4.01 µM | 6.19 µM and 19.9 µM | 3.1 µM |  | 3.44 µM | 1.62 µM and 12.7 µM | 2.09 µM | 1.89 µM and 4.02 µM | 2 µM | 1.6 µM and 4.05 µM
Cc1ccc(Cl)cc1Nc1nc(C(F)(F)F)ccc1C(=O)Nc1cccc(C(F)(F)F)c1 | 2.2 µM | 8.69 µM | 3.04 µM | 12.4 µM | 2.49 µM | 9.5 µM | 2.29 µM | 9.63 µM | 2.77 µM | 10 µM | 2.13 µM | 7.66 µM | 2.34 µM | 12.6 µM | 2.18 µM | 4.5 µM | 2.93 µM | 8.35 µM | 5.22 µM | 17.1 µM
O=C(NCc1cccnc1)/C(=C\c1ccc(Br)cc1)S(=O)(=O)c1ccccc1 | 0.745 µM | 2.23 µM | 1.13 µM | 2.58 µM | 0.409 µM | 2.11 µM | 0.705 µM | 2.1 µM | 0.419 µM | 2.95 µM | 1.75 µM | 5.43 µM | 0.408 µM | 2.43 µM | 1.38 µM | 2.69 µM | 1.25 µM | 2.68 µM | 1.14 µM | 2.53 µM
C=C1CCC2C3(C)COC(c4ccc(NC(C)=O)cc4)OC3CCC2(C)C1C/C=C1/C(=O)OCC1O (centres undefined) | 3.83 µM | > 100 µM | 5.96 µM | > 100 µM | 4.58 µM | > 100 µM | > 100 µM | > 100 µM | 2.32 µM | 24.9 µM | 7.37 µM | > 100 µM | 0.985 µM | 8.32 µM | 3.57 µM | > 100 µM | 6.26 µM | > 100 µM | > 100 µM | > 100 µM
Cn1c2ccccc2c(=Nc2ccccc2)c2c3ccccc3[nH]c21 | 0.942 µM | 2.39 µM | 0.345 µM | 1.8 µM | 0.284 µM | 1.86 µM | 1.62 µM | 3.11 µM | 0.32 µM | 11.7 µM | 6.75 µM | 61.2 µM | 1.08 µM | 2.56 µM | 0.787 µM | 2.06 µM | 3.02 µM | 16 µM | 0.696 µM | 2.01 µM
Cn1nc(C(F)(F)F)c(-c2ccc(Cl)c(C(F)(F)F)c2)c1-c1ccc(OCc2ccc(Cl)cc2)cc1O | 1.11 µM | 3.02 µM | 1.39 µM | 4.96 µM | 1.52 µM | 6.01 µM | 1.59 µM | 5.41 µM | 1.81 µM | 6.2 µM | 1.56 µM | 4.99 µM | 1.98 µM | 7.29 µM | 1.02 µM | 2.23 µM | 1.37 µM | 4.09 µM | 1.58 µM | 5.8 µM
CC(=O)Oc1ccc(OC(C)=O)c2ccccc12 | 1.49 µM | 3.05 µM | 14 µM | 33 µM | 7.98 µM | 27.6 µM | 1.17 µM | 2.48 µM | 2.46 µM | 8.38 µM | 3.27 µM | 15.2 µM | 3.85 µM | 10.2 µM | 13.5 µM | 26.4 µM | 3.95 µM | 13.8 µM | 6.94 µM | 19.9 µM
Oc1ccc2oc3ncc(Cl)c(-c4ccccc4)c3c2c1 | > 100 µM | > 100 µM | > 100 µM | > 100 µM | > 100 µM | > 100 µM | > 100 µM | > 100 µM | > 100 µM | > 100 µM | > 100 µM | > 100 µM | > 100 µM | > 100 µM | > 100 µM | > 100 µM | > 100 µM | > 100 µM | > 100 µM | > 100 µM
COc1ccc(-c2ccc(/C=C/C(=O)NO)cc2)cc1 | 1.19 µM | 4.98 µM | 0.65 µM | 11.8 µM | 0.639 µM | 19.2 µM | 1.17 µM | 13.4 µM | 0.375 µM |  | 0.533 µM | 3.22 µM | 0.697 µM | > 100 µM | 1.1 µM | 3 µM | 2.13 µM | 13.8 µM | 1.15 µM | 3.43 µM
O=C1NC(=O)/C(=C/C=C/c2ccccc2)S1 | 11.1 µM | > 81.1 µM | 12.3 µM | > 82.4 µM | 1.36 µM | > 100 µM | 30.4 µM | > 100 µM | 2.08 µM | > 72 µM | 2.87 µM | > 100 µM | 3.67 µM | > 96.5 µM | 2.58 µM | 22.5 µM | 5.43 µM | > 100 µM | 0.49 µM | 27 µM
Nc1ncnc2c1c(C(F)(F)F)cn2[C@@H]1O[C@H](CO)[C@@H](O)[C@H]1O | 0.222 µM | 6.62 µM | 0.104 µM | 2.51 µM | 0.0405 µM | > 86.3 µM | 0.652 µM | > 100 µM | 0.324 µM | 1.48 µM | 0.363 µM | > 100 µM | 0.151 µM | 1.82 µM | 0.402 µM | 5.02 µM | 0.306 µM |  | 0.0601 µM | 1.78 µM
